{
  "source": "patent US9688653B2",
  "about": "“Ethoxyphenyl thienyl compounds and methods for the treatment of bacterial infections” (Duke University, priority 2013, dated 2017)",
  "key": {"in vitro": {"assay": "in vitro", "settings": "human (5637 cells, CC50), Escherichia coli (UTI89, IC50), Fold Selective (CC50/IC50)", "summary_of_the_method": "(§1)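 UTI89 cultures in LB with 0.5% DMSO were preincubated 2 hr at 37 °C with compounds (100 μM in screen), then with K1F phage a further 2 hr. Viability was read as Alamar Blue fluorescence. Phage-lysis inhibition is relative to plate bacterial controls; IC50 by 4-parameter fit locked at 0 and 100.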"}, "E. coli K1 strain UTI89": {"system": "E. coli K1 strain UTI89", "assay": "microbe, parasite or virus in culture", "settings": "for Selectivity index (CC50/IC50): versus bladder 5637 cells", "summary_of_the_method": "as §1"}, "[1]": {"assay": "Aqueous stability over 48 hours", "assay_type": "physicochemical", "settings": "aqueous PBS and 50:50 aqueous PBS:acetonitrile, room temperature", "description": "Aqueous stability for the probe was assessed using two solvent systems (100% aqueous PBS, and 50:50 aqueous PBS: acetonitrile). The probe stability was measured in aqueous PBS (no antioxidants or other protectants, DMSO concentration below 0.1%, room temperature) and the results are reported as circles in the graph in FIG. 4. The probe stability was also measured in 50:50 aqueous PBS and acetonitrile and the results are reported as squares in the graph in FIG. 4. Stability data in each case is depicted as the loss of compound with time over 48 hours with a minimum of six time points and providing the percent compound remaining after 48 hours."}, "E. coli UTI89": {"system": "E. coli UTI89", "assay": "Murine UPEC sepsis model", "assay_type": "in vivo", "description": "Murine UPEC sepsis model and treatment with DU011. Groups of five 6-7 week old C57BL/6NCr female mice (purchased from Frederick National Laboratory for Cancer Research) were injected subcutaneously twice daily with 100 μL of 1% DMSO (vehicle control) or DU011 (1 mg/ml) starting 12 hrs prior to the intra peritoneal infection. Weights were recorded twice daily to monitor health of the animals and tolerance to the compound. Mice were challenged by intraperitoneal injection with 10^8 CFU of the indicated E. coli UTI89 in 100 μL of PBS. Briefly, cultures were prepared by diluting overnight cultures (18 hrs) 1:100 into 3 mL of LB supplemented with 1% DMSO final or 100 μM DU011 (1% DMSO final). Shaken cultures were grown at 37° C. for 6 hours to an OD600 of 1.2, and then cells were pelleted and resuspended in 1 mL of PBS. Absorbance was adjusted to OD600 of 0.8 in PBS, and the cultures were then diluted 1:10 in sterile PBS Animals were also given an intraperitoneal dose of 1% DMSO or DU011, in a site different than the administration of bacteria, to ensure sufficient systemic delivery of drug. Animal survival was assessed after 12 hours. Surviving mice were re-dosed according to the treatment groups and continued to be monitored. The experiment was concluded 48 hours post infection. The entire experiment was repeated with similar results.\nThroughout each experiment, animals were monitored each 6 hours from the time of infection until conclusion for serious morbidity, including ruffled fur, decreased activity, slowed respirations, and ill appearance. Animals were provided gel packs for easily accessible additional hydration throughout the experiments. When a moribund state was suspected or anticipated by these criteria, animals were immediately euthanized to minimize potential pain and/or suffering. Of the total animals with an outcome categorized as death, the following numbers were euthanized for terminal morbidity prior to septic death (euthanized/total deaths): 3/10, no prior treatment; 3/5 prior chemical treatment of bacteria alone; 0/2 prior chemical treatment of mice alone. Euthanasia for all animals was through complete respiratory cessation using the inhaled anesthetic isoflurane followed by secondary assurance of death using bilateral thoracotomy. All animal experiments were conducted with prior approval from the Institutional Animal Care and Use Committee of Duke University."}, "[2]": {"settings": "pre-treatment of bacteria without pretreatment of the mice"}},
  "note": "“Also recorded” adds a separate entry of the source. Where two headings read alike, the source gives them in different places.",
  "data": [
    {"smiles": "CCOc1ccc(-c2cc(NC(=O)c3c(F)cccc3F)c(C(=O)O)s2)cc1", "note": "[ML317, 3-(2,6-difluorobenzamido)-5-(4-ethoxyphenyl)thiophene-2-carboxylic acid]", "values": [
      {"measurement": "selectivity ratio", "setting": "in vitro; commercial sample, SID 103147605", "result": 10.5},
      {"measurement": "selectivity ratio", "setting": "in vitro; synthesized sample, SID 126497311", "result": 27.3},
      {"measurement": "inhibition at 100 µM", "setting": "E. coli K1 strain UTI89; Escherichia coli, read-out: % Inhibition at 100 μM", "result": 9.12, "unit": "%"},
      {"measurement": "IC50", "setting": "E. coli K1 strain UTI89; Escherichia coli, read-out: K1 Capsule IC50, commercial sample, SID 103147605", "result": "4.5 ± 2.4", "unit": "µM"},
      {"measurement": "IC50", "setting": "E. coli K1 strain UTI89; Escherichia coli, read-out: K1 Capsule IC50, synthesized sample, SID 126497311", "result": "1.89 ± 1.56", "unit": "µM"},
      {"measurement": "IC50", "setting": "E. coli K1 strain UTI89; Escherichia coli, read-out: K1 phage IC50, first round of synthetic analogues, n = 3", "result": 1.89, "unit": "µM"},
      {"measurement": "IC50", "setting": "E. coli K1 strain UTI89; Escherichia coli, read-out: K1 phage IC50, purchased analogue series, n = 3", "result": 4.5, "unit": "µM"},
      {"measurement": "Selectivity (Cyt./K1)", "setting": "E. coli K1 strain UTI89; first round of synthetic analogues", "result": 27.3},
      {"measurement": "Selectivity (Cyt./K1)", "setting": "E. coli K1 strain UTI89; purchased analogue series", "result": 10.49},
      {"measurement": "Selectivity index (CC50/IC50)", "setting": "E. coli K1 strain UTI89", "result": "> 10"},
      {"measurement": "Selectivity index (CC50/IC50)", "setting": "E. coli K1 strain UTI89; listed as CID 23602075", "result": 10.49},
      {"measurement": "Aqueous stability", "setting": "[1]", "result": "stable"},
      {"measurement": "Tolerability in mice", "setting": "E. coli UTI89; 100 μL of 1 mg/ml subcutaneously twice daily, listed as DU011", "result": "without evident side effects; also recorded: no detectable adverse effects"},
      {"measurement": "Body weight", "setting": "E. coli UTI89; [2]", "result": "ongoing weight loss"},
      {"measurement": "Survival", "setting": "E. coli UTI89; [2]", "result": 50, "unit": "%"},
      {"measurement": "Body weight", "setting": "E. coli UTI89; pretreatment of the bacteria and mice with DU011", "result": "recovery of pre-infection weights"},
      {"measurement": "Survival", "setting": "E. coli UTI89; pretreatment of the bacteria and mice with DU011, 10^8 CFU UTI89 intraperitoneal, 48 hrs", "result": 100, "unit": "%"},
      {"measurement": "Body weight", "setting": "E. coli UTI89; subcutaneous DU011 and untreated UTI89", "result": "stabilization of weights"},
      {"measurement": "Survival", "setting": "E. coli UTI89; subcutaneous DU011 and untreated UTI89, 48 hrs", "result": 80, "unit": "%"}
    ]}
  ]
}
